# Source: publication PMC9519446, “Discovery of an Orally Active Benzoxaborole Prodrug Effective in the Treatment of Chagas Disease in Non-human Primates” (Nature microbiology, 2022)
# Several values for one entry are separate records, joined by “and”; a condition that tells them apart may be missing. Identical values can stand only once.
# Assay: NHP health screening: serum chemistry
# Type: in vivo, rhesus macaques (Macaca mulatta)
# [1] = End of study bleed, Mean of treated F animals
# [2] = End of study bleed, individual treated animals
# [3] = Mid-dosing bleed, Mean of treated females
# [4] = Mid-dosing bleed, treated animals, individual values
# Description: Under light-anesthesia/sedation, peripheral blood samples were collected from each animal prior to treatment and at 7 time points following. Blood analysis (CBC and serum chemistry assays) and physical exams to evaluate the health of the study animals were performed on each animal prior to the beginning of the study and also at three time points during the treatment protocol (see Supplementary data).
structure (smiles),measurement,setting,value
Cc1c(C(=O)N[C@H](C(=O)OCC2CCOCC2)C(C)C)ccc2c1B(O)OC2 [AN15368],Agap,[1],15 Meq/L
same,Alb,[1],3.916 G/Dl
same,Alp,[1],92.2632 Iu/L
same,Alt,[1],53.7368 Iu/L
same,Ast,[1],63.5789 Iu/L
same,Bun,[1],17.7895 Mg/Dl
same,Ca,[1],9.232 Mg/Dl
same,Chol,[1],138.105 mg/dL
same,Ck,[1],2260.42 Iu/L
same,Cl,[1],109.526 Meq/L
same,Crea,[1],0.7289 Mg/Dl
same,Fe,[1],111.895 µg/dL
same,Ggt,[1],45 Iu/L
same,Glob,[1],2.684 G/Dl
same,Gluc,[1],62.2105 Mg/Dl
same,K,[1],3.584 Meq/L
same,Ldh,[1],581.684 Iu/L
same,Na,[1],147.474 Meq/L
same,Osmo,[1],284.105 Mosm/Kg
same,Phos,[1],3.284 Mg/Dl
same,Tbil,[1],0.2074 Mg/Dl
same,Tco2,[1],26.6842 Meq/L
same,Tibc,[1],363.263 µg/dL
same,Tp,[1],6.589 G/Dl
same,Trig,[1],78.7895 Mg/Dl
same,Agap,[2],18 Meq/L and 14 Meq/L and 15 Meq/L and 13 Meq/L and 17 Meq/L and 16 Meq/L
same,Alb,[2],4.2 G/Dl and 3.6 G/Dl and 3.9 G/Dl and 3.5 G/Dl and 4 G/Dl and 3.3 G/Dl and 2.9 G/Dl and 4.4 G/Dl and 3.8 G/Dl and 4.7 G/Dl and 4.3 G/Dl
same,Alp,[2],132 Iu/L and 94 Iu/L and 68 Iu/L and 54 Iu/L and 70 Iu/L and 117 Iu/L and 84 Iu/L and 65 Iu/L and 131 Iu/L and 60 Iu/L and 92 Iu/L and 150 Iu/L and 113 Iu/L and 97 Iu/L and 63 Iu/L and 80 Iu/L and 71 Iu/L and 89 Iu/L and 76 Iu/L
same,Alt,[2],39 Iu/L and 36 Iu/L and 27 Iu/L and 30 Iu/L and 87 Iu/L and 53 Iu/L and 95 Iu/L and 29 Iu/L and 76 Iu/L and 195 Iu/L and 45 Iu/L and 25 Iu/L and 70 Iu/L and 69 Iu/L and 18 Iu/L and 22 Iu/L
same,Ast,[2],34 Iu/L and 33 Iu/L and 18 Iu/L and 23 Iu/L and 28 Iu/L and 35 Iu/L and 32 Iu/L and 29 Iu/L and 21 Iu/L and 199 Iu/L and 392 Iu/L and 24 Iu/L and 25 Iu/L and 203 Iu/L and 16 Iu/L
same,Bun,[2],19 Mg/Dl and 14 Mg/Dl and 15 Mg/Dl and 17 Mg/Dl and 18 Mg/Dl and 16 Mg/Dl and 13 Mg/Dl and 38 Mg/Dl and 29 Mg/Dl and 11 Mg/Dl
same,Ca,[2],9.6 Mg/Dl and 9.1 Mg/Dl and 8.7 Mg/Dl and 9.3 Mg/Dl and 9.5 Mg/Dl and 9.2 Mg/Dl and 8.8 Mg/Dl and 8.5 Mg/Dl and 8.2 Mg/Dl and 9.7 Mg/Dl and 9.4 Mg/Dl and 10.1 Mg/Dl
same,Chol,[2],127 mg/dL and 152 mg/dL and 153 mg/dL and 132 mg/dL and 115 mg/dL and 168 mg/dL and 197 mg/dL and 162 mg/dL and 129 mg/dL and 141 mg/dL and 101 mg/dL and 85 mg/dL and 158 mg/dL and 126 mg/dL and 118 mg/dL and 151 mg/dL and 136 mg/dL and 110 mg/dL
same,Ck,[2],224 Iu/L and 407 Iu/L and 173 Iu/L and 274 Iu/L and 432 Iu/L and 485 Iu/L and 1737 Iu/L and 198 Iu/L and 506 Iu/L and 146 Iu/L and 14833 Iu/L and 15016 Iu/L and 403 Iu/L and 468 Iu/L and 205 Iu/L and 374 Iu/L and 6914 Iu/L and 290 Iu/L and 124 Iu/L and 171 Iu/L
same,Cl,[2],111 Meq/L and 110 Meq/L and 109 Meq/L and 107 Meq/L and 104 Meq/L and 108 Meq/L and 112 Meq/L
same,Crea,[2],0.7 Mg/Dl and 0.59 Mg/Dl and 0.62 Mg/Dl and 0.68 Mg/Dl and 0.76 Mg/Dl and 0.63 Mg/Dl and 0.77 Mg/Dl and 0.78 Mg/Dl and 0.71 Mg/Dl and 0.75 Mg/Dl and 1.07 Mg/Dl and 0.83 Mg/Dl and 0.58 Mg/Dl and 0.57 Mg/Dl and 0.74 Mg/Dl and 0.85 Mg/Dl and 0.66 Mg/Dl
same,Fe,[2],161 µg/dL and 147 µg/dL and 112 µg/dL and 151 µg/dL and 121 µg/dL and 108 µg/dL and 127 µg/dL and 95 µg/dL and 137 µg/dL and 110 µg/dL and 23 µg/dL and 34 µg/dL and 87 µg/dL and 133 µg/dL and 143 µg/dL and 32 µg/dL and 183 µg/dL and 103 µg/dL and 93 µg/dL
same,Ggt,[2],49 Iu/L and 44 Iu/L and 32 Iu/L and 38 Iu/L and 45 Iu/L and 53 Iu/L and 43 Iu/L and 48 Iu/L and 60 Iu/L and 51 Iu/L and 47 Iu/L and 30 Iu/L and 41 Iu/L and 67 Iu/L
same,Glob,[2],2.4 G/Dl and 3.1 G/Dl and 2.5 G/Dl and 2.6 G/Dl and 2.8 G/Dl and 2.9 G/Dl and 2.7 G/Dl and 3.3 G/Dl and 3.2 G/Dl and 2.3 G/Dl and 2.2 G/Dl
same,Gluc,[2],77 Mg/Dl and 54 Mg/Dl and 69 Mg/Dl and 48 Mg/Dl and 57 Mg/Dl and 50 Mg/Dl and 62 Mg/Dl and 56 Mg/Dl and 65 Mg/Dl and 75 Mg/Dl and 83 Mg/Dl and 64 Mg/Dl and 58 Mg/Dl and 73 Mg/Dl and 55 Mg/Dl and 63 Mg/Dl
same,K,[2],3.5 Meq/L and 4 Meq/L and 3.4 Meq/L and 3.3 Meq/L and 3.6 Meq/L and 3.7 Meq/L and 3.9 Meq/L and 2.9 Meq/L and 3.8 Meq/L and 4.1 Meq/L
same,Ldh,[2],508 Iu/L and 636 Iu/L and 140 Iu/L and 492 Iu/L and 348 Iu/L and 387 Iu/L and 493 Iu/L and 399 Iu/L and 281 Iu/L and 157 Iu/L and 1914 Iu/L and 2200 Iu/L and 274 Iu/L and 247 Iu/L and 194 Iu/L and 1688 Iu/L and 241 Iu/L and 292 Iu/L and 122 Iu/L
same,Na,[2],148 Meq/L and 145 Meq/L and 149 Meq/L and 146 Meq/L and 147 Meq/L
same,Osmo,[2],286 Mosm/Kg and 278 Mosm/Kg and 284 Mosm/Kg and 285 Mosm/Kg and 280 Mosm/Kg and 291 Mosm/Kg and 283 Mosm/Kg and 282 Mosm/Kg
same,Phos,[2],3.1 Mg/Dl and 3.5 Mg/Dl and 3.7 Mg/Dl and 2.5 Mg/Dl and 4.3 Mg/Dl and 4.5 Mg/Dl and 4.2 Mg/Dl and 3 Mg/Dl and 2.4 Mg/Dl and 2.3 Mg/Dl and 3.4 Mg/Dl and 3.2 Mg/Dl and 2.7 Mg/Dl and 3.3 Mg/Dl and 4.8 Mg/Dl and 4 Mg/Dl
same,Tbil,[2],0.17 Mg/Dl and 0.1 Mg/Dl and 0.12 Mg/Dl and 0.16 Mg/Dl and 0.45 Mg/Dl and 0.41 Mg/Dl and 0.15 Mg/Dl and 0.14 Mg/Dl and 0.84 Mg/Dl and 0.19 Mg/Dl
same,Tco2,[2],23 Meq/L and 25 Meq/L and 26 Meq/L and 27 Meq/L and 30 Meq/L and 31 Meq/L and 28 Meq/L and 29 Meq/L and 24 Meq/L
same,Tibc,[2],337 µg/dL and 401 µg/dL and 353 µg/dL and 346 µg/dL and 309 µg/dL and 409 µg/dL and 351 µg/dL and 396 µg/dL and 388 µg/dL and 371 µg/dL and 299 µg/dL and 267 µg/dL and 357 µg/dL and 410 µg/dL and 392 µg/dL and 358 µg/dL and 376 µg/dL and 424 µg/dL and 347 µg/dL and 320 µg/dL
same,Tp,[2],6.5 G/Dl and 6.7 G/Dl and 6.4 G/Dl and 6.8 G/Dl and 6.3 G/Dl and 6.9 G/Dl and 6.6 G/Dl and 6 G/Dl and 6.1 G/Dl and 6.2 G/Dl
same,Trig,[2],66 Mg/Dl and 105 Mg/Dl and 88 Mg/Dl and 84 Mg/Dl and 101 Mg/Dl and 120 Mg/Dl and 124 Mg/Dl and 77 Mg/Dl and 61 Mg/Dl and 137 Mg/Dl and 20 Mg/Dl and 24 Mg/Dl and 50 Mg/Dl and 111 Mg/Dl and 31 Mg/Dl and 141 Mg/Dl and 27 Mg/Dl
same,Agap,[3],15.1667 Meq/L
same,Alb,[3],3.839 G/Dl
same,Alp,[3],98.7222 Iu/L
same,Alt,[3],44.8889 Iu/L
same,Ast,[3],27.4444 Iu/L
same,Bun,[3],14.2778 Mg/Dl
same,Ca,[3],9.439 Mg/Dl
same,Chol,[3],138.5 mg/dL
same,Ck,[3],456.778 Iu/L
same,Cl,[3],110.167 Meq/L
same,Crea,[3],0.7289 Mg/Dl
same,Fe,[3],141.278 µg/dL
same,Ggt,[3],49.6667 Iu/L
same,Glob,[3],3.072 G/Dl
same,Gluc,[3],63.0556 Mg/Dl
same,K,[3],3.633 Meq/L
same,Ldh,[3],249.389 Iu/L
same,Na,[3],148.5 Meq/L
same,Osmo,[3],284.778 Mosm/Kg
same,Phos,[3],2.8 Mg/Dl
same,Tbil,[3],0.1683 Mg/Dl
same,Tco2,[3],26.8889 Meq/L
same,Tibc,[3],368.167 µg/dL
same,Tp,[3],6.906 G/Dl
same,Trig,[3],81.6111 Mg/Dl
same,Agap,[4],16 Meq/L and 17 Meq/L and 13 Meq/L and 15 Meq/L and 14 Meq/L
same,Alb,[4],3.9 G/Dl and 3.6 G/Dl and 3.8 G/Dl and 3.4 G/Dl and 3.5 G/Dl and 4.3 G/Dl and 4.1 G/Dl and 3.7 G/Dl and 4 G/Dl
same,Alp,[4],114 Iu/L and 109 Iu/L and 79 Iu/L and 146 Iu/L and 91 Iu/L and 93 Iu/L and 84 Iu/L and 108 Iu/L and 131 Iu/L and 72 Iu/L and 88 Iu/L and 136 Iu/L and 116 Iu/L and 65 Iu/L and 75 Iu/L and 90 Iu/L
same,Alt,[4],46 Iu/L and 63 Iu/L and 42 Iu/L and 89 Iu/L and 50 Iu/L and 33 Iu/L and 67 Iu/L and 24 Iu/L and 27 Iu/L and 69 Iu/L and 29 Iu/L and 22 Iu/L and 35 Iu/L and 40 Iu/L and 55 Iu/L and 44 Iu/L and 56 Iu/L
same,Ast,[4],40 Iu/L and 24 Iu/L and 28 Iu/L and 29 Iu/L and 25 Iu/L and 26 Iu/L and 33 Iu/L and 34 Iu/L and 20 Iu/L and 27 Iu/L and 15 Iu/L and 30 Iu/L and 23 Iu/L
same,Bun,[4],15 Mg/Dl and 16 Mg/Dl and 13 Mg/Dl and 12 Mg/Dl and 14 Mg/Dl and 11 Mg/Dl and 20 Mg/Dl
same,Ca,[4],9.7 Mg/Dl and 9.6 Mg/Dl and 9.1 Mg/Dl and 9.3 Mg/Dl and 9 Mg/Dl and 9.2 Mg/Dl and 10 Mg/Dl and 9.8 Mg/Dl and 9.5 Mg/Dl
same,Chol,[4],180 mg/dL and 175 mg/dL and 134 mg/dL and 115 mg/dL and 124 mg/dL and 127 mg/dL and 158 mg/dL and 141 mg/dL and 125 mg/dL and 122 mg/dL and 138 mg/dL and 154 mg/dL and 140 mg/dL and 113 mg/dL and 133 mg/dL and 148 mg/dL and 151 mg/dL and 119 mg/dL
same,Ck,[4],427 Iu/L and 338 Iu/L and 199 Iu/L and 479 Iu/L and 314 Iu/L and 233 Iu/L and 738 Iu/L and 1619 Iu/L and 353 Iu/L and 416 Iu/L and 382 Iu/L and 210 Iu/L and 648 Iu/L and 548 Iu/L and 237 Iu/L and 332 Iu/L and 197 Iu/L and 552 Iu/L and 206 Iu/L
same,Cl,[4],110 Meq/L and 109 Meq/L and 111 Meq/L and 108 Meq/L and 107 Meq/L and 113 Meq/L and 112 Meq/L
same,Crea,[4],0.56 Mg/Dl and 0.91 Mg/Dl and 0.71 Mg/Dl and 0.69 Mg/Dl and 0.85 Mg/Dl and 0.97 Mg/Dl and 0.62 Mg/Dl and 0.77 Mg/Dl and 0.78 Mg/Dl and 0.74 Mg/Dl and 0.76 Mg/Dl and 0.58 Mg/Dl and 0.65 Mg/Dl and 0.64 Mg/Dl and 0.68 Mg/Dl
same,Fe,[4],185 µg/dL and 145 µg/dL and 129 µg/dL and 168 µg/dL and 126 µg/dL and 124 µg/dL and 150 µg/dL and 181 µg/dL and 159 µg/dL and 113 µg/dL and 170 µg/dL and 84 µg/dL and 111 µg/dL and 169 µg/dL and 125 µg/dL and 154 µg/dL and 155 µg/dL
same,Ggt,[4],46 Iu/L and 64 Iu/L and 42 Iu/L and 53 Iu/L and 58 Iu/L and 67 Iu/L and 48 Iu/L and 30 Iu/L and 52 Iu/L and 31 Iu/L and 40 Iu/L and 35 Iu/L and 82 Iu/L and 37 Iu/L and 50 Iu/L and 65 Iu/L
